The record followed here is patent publication US5919785A, “Inhibitors of farnesyl-protein transferase” (Merck & Co., Inc., priority 1997, dated 1999).

This assay concerns the target T1, human FPTase (Homo sapiens, UniProt P49354+P49356).
T1 construct: made in house
Kind of assay: In vitro inhibition of ras farnesyl transferase (human FPTase assay). The format is biochemical. On the procedure:
Assays of farnesyl-protein transferase. […] Reactions were initiated with FPTase and stopped with 1 ml of 1.0 M HCL in ethanol. Precipitates were collected onto filter-mats using a TomTec Mach HI cell harvester, washed with 100% ethanol, dried and counted in an LKB β-plate counter. […] Purified compounds were dissolved in 100% dimethyl sulfoxide (DMSO) and were diluted 20-fold into the assay. Percentage inhibition is measured by the amount of incorporation of radioactivity in the presence of the test compound when compared to the amount of incorporation in the absence of the test compound. […] Human FPTase activity was assayed as described above with the exception that 0.1% (w/v) polyethylene glycol 20,000, 10 μM ZnCl2 and 100 nM Ras-CVIM were added to the reaction mixture. Reactions were performed for 30 min., stopped with 100 μl of 30% (v/v) trichloroacetic acid (TCA) in ethanol and processed as described above for the bovine enzyme.

Structures can show the parent of a compound that is named as a salt. Where two headings read alike, the source gives them in different places.

In the case of `N#Cc1ccc(Cn2cncc2CN2CC(=O)N(c3ccccc3)CC2=O)cc1` [Example 4, 4-[1-(4-cyanobenzyl)-5-imidazolylmethyl]-1-phenylpiperazine-2,5-dione hydrochloride], the half-maximal inhibitory concentration (IC50) was not above 50 µM.

For `N#Cc1ccc(Cn2cncc2CN2CC(=O)N(Cc3ccccc3)CC2=O)cc1` [Example 5, 4-benzyl-1-[1-(4-cyanobenzyl)-5-imidazolylmethyl]-piperazine-2,5-dione hydrochloride], the IC50 (human FPTase, [3H]-FPP, 100 nM Ras-CVIM, 30 min, read-out: IC50, inhibitory activity against human FPTase) is not above 50 µM.

The IC50 is the concentration needed to halve the response being measured.
